Measurements published in patent publication US11660293B2, “Substituted 2-azabicyclo[3.1.1]heptane and 2-azabicyclo[3.2.1]octane derivatives as orexin receptor antagonists” (Chronos Therapeutics Limited, priority 2017, dated 2023).

Assays:
[1] = molecular target: human Orexin type 1 receptors (Homo sapiens (Human), UniProt O43613); test: Scintillation Proximity Assay (SPA) binding assay, [3H]SB-674042 displacement, CHO-hOX1 membranes
Experimental: Scintillation Proximity Assay (SPA) Binding Assays CHO cells stably transfected with human Orexin type 1 receptors (CHO-hOX1) or HEK-293 cells transiently transfected with human Orexin type 2 receptors (HEK-hOX2) were collected after 16 h induction with 5 mM sodium butyrate. […] The binding was performed in a final volume of 200 μl. 100 μl of hOX1 or hOX2 beads-membranes suspension were added to 100 μl of [^3H]SB-674042 or [^3H]EMPA solutions (radioligand concentration 2 nM final in the assay), into the 96-well Isoplates containing the 2 μl/well of compounds to be tested. Nonspecific binding was measured in the presence of 1 μM Almorexant. Assay plates were then incubated at room temperature for 3 h before being counted in a Microbeta scintillation counter (PerkinElmer). Data were analysed by non-linear regression analysis using XLfit Software.

[2] = molecular target: human Orexin type 2 receptors (Homo sapiens (Human), UniProt O43614); test: Scintillation Proximity Assay (SPA) binding assay, [3H]EMPA displacement, HEK-hOX2 membranes
Sequence of human Orexin type 2 receptors (O43614 whole entry): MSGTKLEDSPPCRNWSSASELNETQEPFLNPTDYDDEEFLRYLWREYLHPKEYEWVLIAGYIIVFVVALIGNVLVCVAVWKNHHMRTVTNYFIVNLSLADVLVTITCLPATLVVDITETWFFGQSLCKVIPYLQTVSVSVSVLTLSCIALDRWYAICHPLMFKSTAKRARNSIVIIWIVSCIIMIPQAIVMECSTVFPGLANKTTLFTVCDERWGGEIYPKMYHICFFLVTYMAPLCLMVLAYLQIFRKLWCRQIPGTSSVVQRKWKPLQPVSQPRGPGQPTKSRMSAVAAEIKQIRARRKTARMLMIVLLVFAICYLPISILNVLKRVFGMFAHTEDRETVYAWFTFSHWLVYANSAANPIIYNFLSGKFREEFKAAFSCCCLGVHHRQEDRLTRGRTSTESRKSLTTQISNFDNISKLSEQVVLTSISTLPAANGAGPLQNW
Experimental: Scintillation Proximity Assay (SPA) Binding Assays
CHO cells stably transfected with human Orexin type 1 receptors (CHO-hOX1) or HEK-293 cells transiently transfected with human Orexin type 2 receptors (HEK-hOX2) were collected after 16 h induction with 5 mM sodium butyrate. The cell pellets were re-suspended, homogenized in 15 mM Tris/HCl pH=7.5, 1 mM EGTA, 0.3 mM EDTA, 2 mM MgCl2, protease inhibitors and centrifuged at 40,000 g (20 min, 4° C.). After re-suspension, homogenization and centrifugation as above, the final pellets were re-suspended in 75 mM Tris/HCl pH=7.5, 1 mM EGTA, 0.3 mM EDTA, 12.5 mM MgCl2, 250 mM Sucrose, protease inhibitors, divided into aliquots and frozen down at −80° C.
CHO-hOX1 cell membranes (6 μg ml^−1) or HEK-hOX2 membranes (8 μg ml^−1) were pre-coupled with 1.0 mg ml^−1 of Wheatgerm Agglutinin-coated Yttrium Silicate (YSi-WGA) SPA beads (Perkin Elmer) in buffer containing 25 mM HEPES pH=7.4, 1 mM CaCl2), 5 mM MgCl2, 0.01% (w/v) BSA, 0.02% (w/v) Pluronic F-127 by shaking at room temperature for 2.5-3 h.
The binding was performed in a final volume of 200 μl. 100 μl of hOX1 or hOX2 beads-membranes suspension were added to 100 μl of [^3H]SB-674042 or [^3H]EMPA solutions (radioligand concentration 2 nM final in the assay), into the 96-well Isoplates containing the 2 μl/well of compounds to be tested. Nonspecific binding was measured in the presence of 1 μM Almorexant. Assay plates were then incubated at room temperature for 3 h before being counted in a Microbeta scintillation counter (PerkinElmer).
Data were analysed by non-linear regression analysis using XLfit Software.

Sequence of human Orexin type 1 receptors (O43613 whole entry): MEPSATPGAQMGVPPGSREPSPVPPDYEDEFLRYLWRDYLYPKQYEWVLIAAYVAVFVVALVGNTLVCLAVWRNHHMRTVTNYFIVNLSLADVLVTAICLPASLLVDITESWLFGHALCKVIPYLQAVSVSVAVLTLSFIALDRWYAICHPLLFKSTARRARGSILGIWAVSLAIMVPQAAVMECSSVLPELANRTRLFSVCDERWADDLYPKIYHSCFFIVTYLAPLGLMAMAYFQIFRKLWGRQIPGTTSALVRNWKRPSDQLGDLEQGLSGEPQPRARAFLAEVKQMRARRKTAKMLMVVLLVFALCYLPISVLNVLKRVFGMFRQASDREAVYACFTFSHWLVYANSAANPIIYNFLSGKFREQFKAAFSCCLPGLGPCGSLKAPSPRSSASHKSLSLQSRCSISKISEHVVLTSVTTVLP

SMILES	OX1 pKi (SPA binding) ([1]; Table 2, [3H]SB-674042 2 nM)	OX2 pKi (SPA binding) ([2]; Table 2, [3H]EMPA 2 nM)	OX1 pKi (SPA binding) ([1]; Table 1, [3H]SB-674042 2 nM)	OX2 pKi (SPA binding) ([2]; Table 1, [3H]EMPA 2 nM)
Cc1ccc(-n2nccn2)c(C(=O)N2C3CC(C3)[C@@H](C)C2CNc2ncc3ccccc3n2)n1 (stereo partly drawn) [Example 155, cis-N-({4-methyl-2-[6-methyl-3-(2H-1,2,3-triazol-2-yl)pyridin-2-carbonyl]-2-azabicyclo[3.1.1]heptan-3-yl}methyl)quinazolin-2-amine]	7.71	5.49	–	–
Cc1nc(C(=O)N2C(CNc3nc4ccc(F)cc4s3)CC3CC2C3)c(-c2ccccc2)s1 (stereo not shown) [Example 61, 6-fluoro-N-{[2-(2-methyl-5-phenyl-1,3-thiazole-4-carbonyl)-2-azabicyclo[3.1.1]heptan-3-yl]methyl}-1,3-benzothiazol-2-amine]	–	–	9.12	8.03
C[C@@H]1C2CC(C2)N(C(=O)c2cc(F)ccc2-n2nccn2)C1CNc1ncc(C(F)(F)F)cn1 (stereo partly shown) [Example 251]	7.65	4.69	–	–
C[C@@H]1C2CC(C2)N(C(=O)c2cc(F)ccc2-n2nccn2)C1CNc1cnc2ccccc2n1 (mixture of isomers) [Example 187, cis-N-({2-[5-fluoro-2-(2H-1,2,3-triazol-2-yl)benzoyl]-4-methyl-2-azabicyclo[3.1.1]heptan-3-yl}methyl)quinoxalin-2-amine]	8.19	5.63	–	–
Cc1ccc(-n2nccn2)c(C(=O)N2C3CC(C3)[C@@H](C)C2CNc2cncc(C(F)(F)F)n2)n1 (mixture of isomers) [Example 217, cis-N-({4-methyl-2-[6-methyl-3-(2H-1,2,3-triazol-2-yl)pyridine-2-carbonyl]-2-azabicyclo[3.1.1]heptan-3-yl}methyl)-6-(trifluoromethyl)pyrazin-2-amine]	6.85	5.29	–	–
Cc1nc(C(=O)N2C3CC(C3)[C@H](C)C2COc2ccc(F)cc2)c(-c2cnccn2)s1 (mixture of isomers) [Example 121, trans-3-[(4-fluorophenoxy)methyl]-4-methyl-2-[2-methyl-5-(pyrazin-2-yl)-1,3-thiazole-4-carbonyl]-2-azabicyclo[3.1.1]heptane]	7.36	5.54	–	–
C[C@@H]1C2CC(C2)N(C(=O)c2nn(C)cc2-c2ccccc2)C1CNc1ccc(C(F)(F)F)cn1 (mixture of isomers) [Example 210, cis-N-{[4-methyl-2-(1-methyl-4-phenyl-1H-pyrazole-3-carbonyl)-2-azabicyclo[3.1.1]heptan-3-yl]methyl}-5-(trifluoromethyl)pyridin-2-amine]	8.69	5.84	–	–
Cc1ccc(-n2nccn2)c(C(=O)N2C3CC(C3)[C@@H](C)C2CNc2ncc(C(F)(F)F)cn2)n1 (single isomer, unassigned) [Example 194, N-{[(3S,4R) or (3R,4S)-4-methyl-2-[6-methyl-3-(2H-1,2,3-triazol-2-yl)pyridine-2-carbonyl]-2-azabicyclo[3.1.1]heptan-3-yl]methyl}-5-(trifluoromethyl)pyrimidin-2-amine]	7.51	4.66	–	–
Cc1nc(C(=O)N2C(COc3ccc(F)cc3)CC3CC2C3)c(-c2ccccc2F)s1 (stereo not shown) [Example 40]	–	–	7.33	6.19
C[C@@H]1C2CC(C2)N(C(=O)c2cc(F)ccc2-n2nccn2)C1CNc1cnc2cc(F)ccc2n1 (stereo in doubt) [Example 224, cis-6-fluoro-N-({2-[5-fluoro-2-(2H-1,2,3-triazol-2-yl)benzoyl]-4-methyl-2-azabicyclo[3.1.1]heptan-3-yl}methyl)quinoxalin-2-amine]	8.04	6.19	–	–
C[C@@H]1C2CC(C2)N(C(=O)c2cc(F)ccc2-n2nccn2)C1CNc1cnc(C(F)(F)F)cn1 (mixture of isomers) [Example 221, cis-N-({2-[5-fluoro-2-(2H-1,2,3-triazol-2-yl)benzoyl]-4-methyl-2-azabicyclo[3.1.1]heptan-3-yl}methyl)-5-(trifluoromethyl)pyrazin-2-amine]	7.73	4.94	–	–
